Test results taken from patent publication US12522594B2, “2-heteroaryl-3-oxo-2,3-dihydropyridazine-4-carboxamides for the treatment of cancer” (Deutsches Krebsforschungszentrum, priority 2017, dated 2026).
“And” between values parts separate entries of the source, which are not always exact repeats. Identical values can stand only once.

How the values were obtained:
Assay type in all cases: cell-based
human monocytes = assay: In vitro assay 4: rescue of TNFα production from human primary monocytes (LPS + KA); settings: one value per donor; for Individual Donors Conc of highest rescue: concentration (of 1, 0.3, 0.1 uM tested) at which highest TNFα rescue was observed; for Individual Donors % rescue TNFα normalised to ref cmpd: human monocytes, 10 ng/mL LPS + 200 uM KA, 18 hours, highest percent rescue relative to highest rescue with GNF-351
Protocol: In Vitro Assay 4: Rescue of TNFα Production from Human Primary Monocytes
The ability of the substances to enhance immune cell activity was determined. The substances were tested for their capacity to reverse KA-induced inhibition of TNFα production by LPS-stimulated human monocytes. Human monocytes were purified by negative selection from donor PBMCs using Miltenyi beads and seeded at 2×10^5 cells/well in complete growth medium (RPMI 1640, 10% FCS). Monocytes were incubated with 10 ng/mL LPS (O127:B8, #L4516, Sigma) and 200 uM KA (#3375, Sigma) and substances were added at concentrations of 1 uM, 0.3 uM and 0.1 uM and cultured for 18 hours. LPS alone served as the positive control. TNFα production in the supernatant was measured by Meso Scale Discovery immunoassay and the ability of the substances to rescue TNFα production was calculated as a percentage of LPS stimulation and KA-induced inhibition and normalized to the donor-specific response with the reference AHR antagonist compound GNF-351 (Smith et al., J Pharmacol Exp Ther, 2011, 338(1):318-27).

AHR [1] = target: T1, AHR (Homo sapiens, UniProt P35869); assay: In vitro assay 2: agonism in human cell line (transactivation assay, U87 cells, DRE firefly luciferase reporter); parameters: host or cells: U87 glioblastoma cells, stably transfected with DRE firefly luciferase and renilla reporter constructs; settings: no kynurenic acid, 20 hours, read-out: Assay 2: AHR-luc Hum Agonism IC50
T1 sequence (P35869 11-848): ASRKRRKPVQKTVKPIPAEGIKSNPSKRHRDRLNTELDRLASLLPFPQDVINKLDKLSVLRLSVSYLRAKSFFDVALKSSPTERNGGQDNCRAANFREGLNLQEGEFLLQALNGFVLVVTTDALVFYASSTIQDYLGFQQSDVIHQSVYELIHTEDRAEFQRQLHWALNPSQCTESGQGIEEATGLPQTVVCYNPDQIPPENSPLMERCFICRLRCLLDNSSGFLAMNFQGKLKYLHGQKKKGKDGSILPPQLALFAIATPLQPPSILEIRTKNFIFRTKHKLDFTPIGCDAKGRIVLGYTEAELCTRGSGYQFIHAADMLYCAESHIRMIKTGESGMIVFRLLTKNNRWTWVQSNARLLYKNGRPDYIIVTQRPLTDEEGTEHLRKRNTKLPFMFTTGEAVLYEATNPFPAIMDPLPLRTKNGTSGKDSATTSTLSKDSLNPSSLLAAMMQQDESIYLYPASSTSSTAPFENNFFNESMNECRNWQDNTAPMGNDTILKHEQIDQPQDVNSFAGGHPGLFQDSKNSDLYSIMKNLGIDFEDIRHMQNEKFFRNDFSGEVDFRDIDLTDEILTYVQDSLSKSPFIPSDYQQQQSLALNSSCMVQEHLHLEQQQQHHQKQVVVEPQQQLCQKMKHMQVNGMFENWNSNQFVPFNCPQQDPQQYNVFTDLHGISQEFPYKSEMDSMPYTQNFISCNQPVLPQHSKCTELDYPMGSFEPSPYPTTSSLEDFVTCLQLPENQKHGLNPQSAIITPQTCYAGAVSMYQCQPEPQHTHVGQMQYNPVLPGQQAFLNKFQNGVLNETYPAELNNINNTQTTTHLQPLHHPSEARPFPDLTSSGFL
In short: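 U87 glioblastoma cells with endogenous AHR, stably carrying DRE-driven firefly luciferase and constitutive renilla reporters. 300 uM kynurenic acid served as positive activation control; data normalized to positive and negative controls.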

AHR [2] = target: T1, AHR; assay: In vitro assay 1: antagonism in human cell line (transactivation assay, U87 cells prestimulated with kynurenic acid, DRE firefly luciferase reporter); parameters: host or cells: U87 glioblastoma cells, stably transfected with DRE firefly luciferase and renilla reporter constructs; settings: 150 uM kynurenic acid, 20 hours, read-out: Assay 1: AHR-luc Hum Antagonism IC50
In short: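 U87 glioblastoma cells with endogenous AHR, stably carrying a DRE-driven firefly luciferase reporter and a constitutive renilla reporter. Cells prestimulated with the AHR agonist kynurenic acid before compound addition; data normalized to positive and negative controls.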

AHR [3] = target: T1, AHR; assay: In vitro assay 3: AHR-regulated CYP1A1 expression in human cell line (U937, qPCR, KA stimulation); settings: U937 cells, 200 uM KA, 6 hours, CYP1A1 expression by qPCR; read-out: Assay 3: Hum CYP1A1 Antagonism IC50
In short: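 U937 human monocytic cells were stimulated with 200 uM KA for 6 h, with or without compound at eight concentrations from 1 nM to 3 uM, in duplicate. CYP1A1 mRNA was quantified by Taqman qPCR as fold expression normalised to HPRT. Unstimulated cells served as negative control.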

IC50 (AHR [1]) [nM]	IC50 (AHR [2]) [nM]	IC50 (AHR [3]) [nM]	Structure (SMILES)	Individual Donors Conc of highest rescue (human monocytes)	Individual Donors % rescue TNFα normalised to ref cmpd (human monocytes)
> 20000	44.4	85.6	C[C@H](NC(=O)c1cc(-c2ccc(Cl)cc2)nn(-c2cnn(C(F)F)c2)c1=O)C(C)(C)O [Example 264, 6-(4-Chlorophenyl)-2-[1-(difluoromethyl)-1H-pyrazol-4-yl]-N-[(2S)-3-hydroxy-3-methylbutan-2-yl]-3-oxo-2,3-dihydropyridazine-4-carboxamide]	–	–
> 20000	45.9	43.3	CC(C)(O)CNC(=O)c1cc(-c2ccc(OC(F)(F)F)cc2)nn(-c2cccnc2)c1=O [Example 292, N-(2-Hydroxy-2-methylpropyl)-3-oxo-2-(pyridin-3-yl)-6-[4-(trifluoromethoxy)phenyl]-2,3-dihydropyridazine-4-carboxamide]	–	–
> 20000	16.4	40.3	C[C@H](NC(=O)c1cc(-c2ccc(OC(F)F)cc2)nn(-c2cnn(C)c2)c1=O)C(C)(C)O [Example 309, 6-[4-(Difluoromethoxy)phenyl]-N-[(2S)-3-hydroxy-3-methylbutan-2-yl]-2-(1-methyl-1H-pyrazol-4-yl)-3-oxo-2,3-dihydropyridazine-4-carboxamide]	–	–
> 20000	2.63	3.81	O=C(NC[C@H](O)C(F)(F)F)c1cc(-c2ccc(C(F)F)cc2)nn(-c2cccnc2)c1=O [Example 313, 6-[4-(Difluoromethyl)phenyl]-3-oxo-2-(pyridin-3-yl)-N-[(2S)-3,3,3-trifluoro-2-hydroxypropyl]-2,3-dihydropyridazine-4-carboxamide]	–	–
> 20000	35.5	22.3	C[C@H](NC(=O)c1cc(-c2ccc(C(F)F)cc2)nn(-c2cccnc2)c1=O)C(C)(C)O [Example 319, 6-[4-(Difluoromethyl)phenyl]-N-[(2S)-3-hydroxy-3-methylbutan-2-yl]-3-oxo-2-(pyridin-3-yl)-2,3-dihydropyridazine-4-carboxamide]	–	–
> 20000	56.7	31.1	CC(C)(O)CNC(=O)c1cc(-c2ccc(C(F)F)cc2)nn(-c2cccnc2)c1=O [Example 322, 6-[4-(Difluoromethyl)phenyl]-N-(2-hydroxy-2-methylpropyl)-3-oxo-2-(pyridin-3-yl)-2,3-dihydropyridazine-4-carboxamide]	–	–

The remaining lines, values behind:

Structure (SMILES)	IC50 (AHR [1]) [nM]	IC50 (AHR [2]) [nM]	IC50 (AHR [3]) [nM]	Individual Donors Conc of highest rescue (human monocytes)	Individual Donors % rescue TNFα normalised to ref cmpd (human monocytes)
O=C(NC(CO)C(F)(F)F)c1cc(-c2ccc(C(F)(F)F)cc2)nn(-c2cccnc2)c1=O (racemic) [Example 110, 3-Oxo-2-(pyridin-3-yl)-N-[(2RS)-1,1,1-trifluoro-3-hydroxypropan-2-yl]-6-[4-(trifluoromethyl)phenyl]-2,3-dihydropyridazine-4-carboxamide]	> 20000	3.31	–	0.1 µM and 0.3 µM	85% and 42%
O=C(N[C@H]1COC[C@H]1O)c1cc(-c2ccc(C(F)F)nc2)nn(-c2cccnc2)c1=O (single isomer, unassigned) [Example 184, 6-[6-(Difluoromethyl)pyridin-3-yl]-N-[(cis)-4-hydroxytetrahydrofuran-3-yl]-3-oxo-2-(pyridin-3-yl)-2,3-dihydropyridazine-4-carboxamide]	> 20000	3810	–	0.1 µM and 1 µM	63% and 62%
CC(C)(O)C(NC(=O)c1cc(-c2ccc(Cl)cc2)nn(-c2cncnc2)c1=O)C(F)(F)F (single isomer, unassigned) [Example 186, 6-(4-Chlorophenyl)-3-oxo-2-(pyrimidin-5-yl)-N-(1,1,1-trifluoro-3-hydroxy-3-methylbutan-2-yl)-2,3-dihydropyridazine-4-carboxamide]	> 20000	131	–	0.1 µM and 0.3 µM	65% and 108%
Cn1cc(-n2nc(-c3ccc(C(F)(F)F)cc3)cc(C(=O)N[C@H](CO)C(F)(F)F)c2=O)cn1 [Example 36, 2-(1-Methyl-1H-pyrazol-4-yl)-3-oxo-N-[(2R)-1,1,1-trifluoro-3-hydroxypropan-2-yl]-6-[4-(trifluoromethyl)phenyl]-2,3-dihydropyridazine-4-carboxamide]	> 20000	–	–	1 µM	74% and 65%
C[C@H](NC(=O)c1cc(-c2ccc(C(F)(F)F)cc2)nn(-c2cn[nH]c2)c1=O)C(C)(C)O [Example 260, N-[(2S)-3-Hydroxy-3-methylbutan-2-yl]-3-oxo-2-(1H-pyrazol-4-yl)-6-[4-(trifluoromethyl)phenyl]-2,3-dihydropyridazine-4-carboxamide]	> 20000	29.4	14.4	–	–
O=C(NC[C@H](O)C(F)F)c1cc(-c2ccc(OC(F)(F)F)cc2)nn(-c2cccnc2)c1=O [Example 295, N-[(2S)-3,3-Difluoro-2-hydroxypropyl]-3-oxo-2-(pyridin-3-yl)-6-[4-(trifluoromethoxy)phenyl]-2,3-dihydropyridazine-4-carboxamide]	> 20000	31.9	89.9	–	–
C[C@@H](CO)NC(=O)c1cc(-c2ccc(OC(F)F)cc2)nn(-c2cnn(C)c2)c1=O [Example 308, 6-[4-(Difluoromethoxy)phenyl]-N-[(2S)-1-hydroxypropan-2-yl]-2-(1-methyl-1H-pyrazol-4-yl)-3-oxo-2,3-dihydropyridazine-4-carboxamide]	> 20000	21.9	33.7	–	–
C[C@H](NC(=O)c1cc(-c2ccc(N(C)C)cc2)nn(-c2cnn(C)c2)c1=O)C(C)(C)O [Example 310, 6-[4-(Dimethylamino)phenyl]-N-[(2S)-3-hydroxy-3-methylbutan-2-yl]-2-(1-methyl-1H-pyrazol-4-yl)-3-oxo-2,3-dihydropyridazine-4-carboxamide]	> 20000	1.7	1.69	–	–
C[C@@H](CO)NC(=O)c1cc(-c2ccc(N(C)C)cc2)nn(-c2cnn(C)c2)c1=O [Example 311, 6-[4-(Dimethylamino)phenyl]-N-[(2S)-1-hydroxypropan-2-yl]-2-(1-methyl-1H-pyrazol-4-yl)-3-oxo-2,3-dihydropyridazine-4-carboxamide]	> 20000	1.82	1.03	–	–
O=C(NC[C@H](O)C(F)(F)F)c1cc(-c2ccc(OC(F)F)cc2)nn(-c2cccnc2)c1=O [Example 314, 6-[4-(Difluoromethoxy)phenyl]-3-oxo-2-(pyridin-3-yl)-N-[(2S)-3,3,3-trifluoro-2-hydroxypropyl]-2,3-dihydropyridazine-4-carboxamide]	> 20000	5.8	10.9	–	–
